According to PubChem BioAssay AID1963983 (Molecular Pharmacology Branch, DTP, NCI, 2024):

System: 186277-243-T-J2-PDC multi-cell spheroid viability
Assay: Anticancer human tumor 186277-243-T-J2-PDC patient-derived colon adenocarcinoma cell line growth inhibition [PI3K]
Details: for IC50: curve of first compound; for viability, T/C: stronger effect = lower value
Outline: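 Three cell types, namely tumor cells, endothelial cells and mesenchymal stem cells, formed each spheroid. Combinations with four PI3K inhibitors were screened at clinically achievable concentrations decreasing by half-log, and spheroid viability was recorded.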

[1] = second compound 0.0316 µM, first compound 0.000316 µM
[2] = second compound 0.0316 µM, first compound 0.001 µM
[3] = second compound 0.0316 µM, first compound 0.00316 µM
[4] = second compound 0.0316 µM, first compound 0.01 µM
[5] = second compound 0.0316 µM, first compound 0.0316 µM
[6] = second compound 0.0316 µM, first compound 0.1 µM
[7] = second compound 0.1 µM, first compound 0.000316 µM
[8] = second compound 0.1 µM, first compound 0.001 µM
[9] = second compound 0.1 µM, first compound 0.00316 µM
[10] = second compound 0.1 µM, first compound 0.01 µM
[11] = second compound 0.1 µM, first compound 0.0316 µM
[12] = second compound 0.1 µM, first compound 0.1 µM
[13] = second compound 0.316 µM, first compound 0.000316 µM
[14] = second compound 0.316 µM, first compound 0.001 µM
[15] = second compound 0.316 µM, first compound 0.00316 µM
[16] = second compound 0.316 µM, first compound 0.01 µM
[17] = second compound 0.316 µM, first compound 0.0316 µM
[18] = second compound 0.316 µM, first compound 0.1 µM
[19] = second compound 1 µM, first compound 0.000316 µM
[20] = second compound 1 µM, first compound 0.001 µM
[21] = second compound 1 µM, first compound 0.00316 µM
[22] = second compound 1 µM, first compound 0.01 µM
[23] = second compound 1 µM, first compound 0.0316 µM
[24] = second compound 1 µM, first compound 0.1 µM
[25] = second compound 3.16 µM, first compound 0.000316 µM
[26] = second compound 3.16 µM, first compound 0.001 µM
[27] = second compound 3.16 µM, first compound 0.00316 µM
[28] = second compound 3.16 µM, first compound 0.01 µM
[29] = second compound 3.16 µM, first compound 0.0316 µM
[30] = second compound 3.16 µM, first compound 0.1 µM
[31] = second compound 10 µM, first compound 0.000316 µM
[32] = second compound 10 µM, first compound 0.001 µM
[33] = second compound 10 µM, first compound 0.00316 µM
[34] = second compound 10 µM, first compound 0.01 µM
[35] = second compound 10 µM, first compound 0.0316 µM
[36] = second compound 10 µM, first compound 0.1 µM
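Further: spheroids exposed to compounds for seven days before viability reading.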
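Wherever viability, T/C is given: 100% = DMSO vehicle control viability.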

Compound `Cn1ncnc1[C@H]1c2n[nH]c(=O)c3cc(F)cc(c23)N[C@@H]1c1ccc(F)cc1` + CC(Nc1ncnc2nc[nH]c12)c1cc2cccc(Cl)c2c(=O)n1-c1ccccc1 has an IC50 (second compound 0.0316 µM) of over 100 nM, an IC50 (second compound 0.1 µM) of over 100 nM and an IC50 (second compound 0.316 µM) of over 100 nM. The IC50 (second compound 1 µM) was over 100 nM, the IC50 (second compound 3.16 µM) was over 100 nM and the IC50 (second compound 10 µM) was over 100 nM. For the same compound, the viability, T/C [1] was 88.3%, the viability, T/C [2] was 94.7% and the viability, T/C [3] was 86.8%. The viability, T/C [4] was 100%, the viability, T/C [5] was 104% and the viability, T/C [6] was 88.9%. It also gave a viability, T/C [7] of 93.2%, a viability, T/C [8] of 111% and a viability, T/C [9] of 94.9%. The viability, T/C [10] was 103%, the viability, T/C [11] was 99.9% and the viability, T/C [12] was 99.3%. It also gave a viability, T/C [13] of 93.5%, a viability, T/C [14] of 107% and a viability, T/C [15] of 96.1%. The viability, T/C [16] was 92.5%, the viability, T/C [17] was 91.3% and the viability, T/C [18] was 85%. For the same compound, the viability, T/C [19] was 89.3%, the viability, T/C [20] was 95.5% and the viability, T/C [21] was 114%. The viability, T/C [22] was 97.4%, the viability, T/C [23] was 87% and the viability, T/C [24] was 84.4%. The viability, T/C [25] was 108%, the viability, T/C [26] was 107% and the viability, T/C [27] was 102%. It also gave a viability, T/C [28] of 84.5%, a viability, T/C [29] of 101% and a viability, T/C [30] of 99.1%. The viability, T/C [31] was 99.6%, the viability, T/C [32] was 90.6% and the viability, T/C [33] was 84.4%. It also gave a viability, T/C [34] of 86%, a viability, T/C [35] of 88.6% and a viability, T/C [36] of 85%.
`CC(Nc1ccc2c(c1)OCCn1cc(N3C(=O)OCC3C(F)F)nc1-2)C(N)=O` (stereo unspecified) was tested, and the viability, T/C (compound 0.00316 µM) was 99.1% [middle of 8 runs], the viability, T/C (compound 0.01 µM) was 100% [middle of 8 runs] and the viability, T/C (compound 0.1 µM) was 98% [middle of 8 runs]. The viability, T/C (compound 0.316 µM) was 73.4% [middle of 8 runs] and the viability, T/C (compound 1 µM) was 50.1% [middle of 8 runs].
Work on `CC(=O)c1c(C)c2cnc(Nc3ccc(N4CCNCC4)cn3)nc2n(C2CCCC2)c1=O` + CC(Nc1ncnc2nc[nH]c12)c1cc2cccc(Cl)c2c(=O)n1-c1ccccc1 yielded an IC50 (second compound 0.0316 µM) of over 100 nM, an IC50 (second compound 0.1 µM) of over 100 nM and an IC50 (second compound 0.316 µM) of over 100 nM. The IC50 (second compound 1 µM) was over 100 nM, the IC50 (second compound 3.16 µM) was over 100 nM and the IC50 (second compound 10 µM) was over 100 nM. It also gave a viability, T/C [1] of 87.2%, a viability, T/C [2] of 96.8% and a viability, T/C [3] of 114%. For the same compound, the viability, T/C [4] was 97.2%, the viability, T/C [5] was 109% and the viability, T/C [6] was 113%. For the same compound, the viability, T/C [7] was 87.2%, the viability, T/C [8] was 91.5% and the viability, T/C [9] was 99%. It also gave a viability, T/C [10] of 96%, a viability, T/C [11] of 116% and a viability, T/C [12] of 133%. For the same compound, the viability, T/C [13] was 96.9%, the viability, T/C [14] was 97.2% and the viability, T/C [15] was 97.7%. For the same compound, the viability, T/C [16] was 107%, the viability, T/C [17] was 118% and the viability, T/C [18] was 127%. For the same compound, the viability, T/C [19] was 96.3%, the viability, T/C [20] was 96.8% and the viability, T/C [21] was 107%. For the same compound, the viability, T/C [22] was 107%, the viability, T/C [23] was 122% and the viability, T/C [24] was 118%. It also gave a viability, T/C [25] of 98.2%, a viability, T/C [26] of 104% and a viability, T/C [27] of 89.1%. The viability, T/C [28] was 110%, the viability, T/C [29] was 99.5% and the viability, T/C [30] was 119%. The viability, T/C [31] was 84%, the viability, T/C [32] was 93.1% and the viability, T/C [33] was 89.7%. It also gave a viability, T/C [34] of 79.3%, a viability, T/C [35] of 100% and a viability, T/C [36] of 97.9%.
`CNC(=O)c1ccc(N2C(=S)N(c3ccc(C#N)c(C(F)(F)F)c3)C(=O)C2(C)C)cc1F` + CC(Nc1ncnc2nc[nH]c12)c1cc2cccc(Cl)c2c(=O)n1-c1ccccc1 gave an IC50 (second compound 0.0316 µM) of over 10000 nM, an IC50 (second compound 0.1 µM) of over 10000 nM and an IC50 (second compound 0.316 µM) of over 10000 nM. For the same compound, the IC50 (second compound 1 µM) was over 10000 nM, the IC50 (second compound 3.16 µM) was over 10000 nM and the IC50 (second compound 10 µM) was over 10000 nM. It also gave a viability, T/C [5] of 100%, a viability, T/C [6] of 117% and a viability, T/C (second compound 0.0316 µM, first compound 0.316 µM) of 90.9%. It also gave a viability, T/C (second compound 0.0316 µM, first compound 1 µM) of 90.1%, a viability, T/C (second compound 0.0316 µM, first compound 3.16 µM) of 101% and a viability, T/C (second compound 0.0316 µM, first compound 10 µM) of 92%. For the same compound, the viability, T/C [11] was 99.7%, the viability, T/C [12] was 107% and the viability, T/C (second compound 0.1 µM, first compound 0.316 µM) was 88.6%. The viability, T/C (second compound 0.1 µM, first compound 1 µM) was 115%, the viability, T/C (second compound 0.1 µM, first compound 3.16 µM) was 115% and the viability, T/C (second compound 0.1 µM, first compound 10 µM) was 99.8%. For the same compound, the viability, T/C [17] was 104%, the viability, T/C [18] was 119% and the viability, T/C (second compound 0.316 µM, first compound 0.316 µM) was 102%. It also gave a viability, T/C (second compound 0.316 µM, first compound 1 µM) of 104%, a viability, T/C (second compound 0.316 µM, first compound 3.16 µM) of 112% and a viability, T/C (second compound 0.316 µM, first compound 10 µM) of 113%. For the same compound, the viability, T/C [23] was 89.3%, the viability, T/C [24] was 112% and the viability, T/C (second compound 1 µM, first compound 0.316 µM) was 117%. It also gave a viability, T/C (second compound 1 µM, first compound 1 µM) of 116%, a viability, T/C (second compound 1 µM, first compound 3.16 µM) of 106% and a viability, T/C (second compound 1 µM, first compound 10 µM) of 103%. For the same compound, the viability, T/C [29] was 116%, the viability, T/C [30] was 128% and the viability, T/C (second compound 3.16 µM, first compound 0.316 µM) was 103%. For the same compound, the viability, T/C (second compound 3.16 µM, first compound 1 µM) was 106%, the viability, T/C (second compound 3.16 µM, first compound 3.16 µM) was 118% and the viability, T/C (second compound 3.16 µM, first compound 10 µM) was 92.9%. It also gave a viability, T/C [35] of 90.5%, a viability, T/C [36] of 102% and a viability, T/C (second compound 10 µM, first compound 0.316 µM) of 103%. It also gave a viability, T/C (second compound 10 µM, first compound 1 µM) of 96.6%, a viability, T/C (second compound 10 µM, first compound 3.16 µM) of 92.1% and a viability, T/C (second compound 10 µM, first compound 10 µM) of 89.4%.
